Laboratory results published in PMC12947280, “An Antifungal with a Novel Mechanism of Action Discovered via Resistance Gene-Guided Genome Mining” (ACS Central Science, 2026).
Like-named read-outs stand apart in the source and are kept apart here.

Experiments:
A. fumigatus ALS = A. fumigatus ALS (Aspergillus fumigatus, UniProt Q4WXQ3); test: ALS biochemical assay (AfALS)
Description: ALS biochemical assay (AfALS)
Aspergillus fumigatus acetohydroxyacid synthase (AfILV2) lacking the N-terminal mitochondrial-targeting sequence (amino acids 112-752) was overproduced and isolated from E. coli as an N-terminally His6-tagged protein. Assays (50 µL final volume) contained 200 nM His6-AfALS, 8 mM pyruvate, 1 mM thiamine pyrophosphate, and 10 µM flavin adenine dinucleotide, 10 mM MgCl2, 1 mM DTT, 1% DMSO (± inhibitor) in 200 mM KH2PO4 buffer at pH
7.5. Following a 30 min pre-incubation of the enzyme and inhibitor in the reaction mixture at room temperature, reactions were initiated with the addition of pyruvate. AfALS assays were carried out at 30 °C for 120 min. The reaction was quenched with the addition of 5 µL of 10% H2SO4 (v/v in deionized water). Reactions were incubated at 60 °C at incubating microplate shaker for 15 min to convert the product of the ALS reaction, acetolactate, to acetoin.
Subsequently, the concentration of acetoin was determined by the addition of 7.5 µL 6 M NaOH, 25 µL 0.5% creatine (w/v in deionized water), and 25 µL 4% 1-naphthol (w/v in 2.5 M NaOH).
This mixture was incubated at 60 °C in an incubating microplate shaker for 15 min. 40 µL of this reaction mixture was transferred to a half area UV-star 96-well plate (Grenier) and the absorbance at 525 nm was measured on a Spark multimode plate reader (Tecan). The percent inhibition was calculated by the comparison of the signal to DMSO (0% inhibition) and no enzyme (100% inhibition) controls. IC50 values were calculated from the dose response curves using Prism 9 (four parameter, variable slope). […]
(amino acids 58-687) was codon optimized for expression in E. coli and synthesized by […]

C. albicans ALS = C. albicans ALS (Candida albicans, UniProt A0A1D8PJF9); test: ALS biochemical assay (CaALS)
A. fumigatus = test: Inhibition of A. fumigatus growth; format: cell-based
[1] = target: T1, S. cerevisiae ALS wild type (Saccharomyces cerevisiae, UniProt P07342); test: ALS biochemical assay (ScALS), wild type
T1 construct: made in house; host or cells: E. coli BL21 (DE3), pET28a-ScILV2
Description: (§1) ALS biochemical assay (ScALS)
(§2) Saccharomyces cerevisiae acetohydroxyacid synthase (ScALS) lacking the N-terminal […]
(§3) Escherichia coli as an N-terminally His6-tagged protein. Assays (50 µL final volume) contained […]
(§4) adenine dinucleotide, 10 mM MgCl2, 1 mM DTT, 1% DMSO (± inhibitor) in 500 mM K2HPO4 buffer at pH 7.5. Following a 30 min pre-incubation of the enzyme and inhibitor in the reaction mixture at room temperature, reactions were initiated with the addition of pyruvate. ScALS assays were carried out at 30 °C for 60 min. The reaction was quenched with the addition of 5 µL of 10% H2SO4 (v/v in deionized water). Reactions were incubated at 60 °C at 800 rpm in an […]
(§5) to acetoin. Subsequently, the concentration of acetoin was determined by the addition of 7.5 µL 6 M NaOH, 25 µL 0.5% creatine (w/v in deionized water), and 25 µL 4% 1-naphthol (w/v in 2.5 M NaOH). This mixture was incubated at 60 °C at 800 rpm in an incubating microplate shaker for […]
(§6) 40 µL of this reaction mixture was transferred to a half area UV-star 96-well plate (Grenier) and the absorbance at 525 nm was measured on a Spark multimode plate reader (Tecan). The percent inhibition was calculated by the comparison of the signal to DMSO (0% […]
(§7) IC50 values were calculated from the dose response curves using Prism 9 (four parameter, variable slope). […]
(§8) Expression and purification of ScALS
(§9) S. cerevisiae ILV2 (the gene or ScALS) lacking the N-terminal mitochondrial-localization tag

S. cerevisiae ALS P192S = target: T2, S. cerevisiae ALS P192S (Saccharomyces cerevisiae, UniProt P07342, P192S); test: biochemical; format: biochemical
T2 construct: His6 (followed by a TEV protease site, pET28a) (N); made in house; host or cells: E. coli (inferred from the ScALS method)
Description: as §1, §2, §3, §4, §5, §6, §7, §8, §9

[2] = Aspergillus fumigatus; read-out: A. fumigatus growth inhibition EC50 (Figure 4A)
[3] = Aspergillus fumigatus; read-out: A. fumigatus growth inhibition IC50

Sequence of A. fumigatus ALS (Q4WXQ3 entry or part of it): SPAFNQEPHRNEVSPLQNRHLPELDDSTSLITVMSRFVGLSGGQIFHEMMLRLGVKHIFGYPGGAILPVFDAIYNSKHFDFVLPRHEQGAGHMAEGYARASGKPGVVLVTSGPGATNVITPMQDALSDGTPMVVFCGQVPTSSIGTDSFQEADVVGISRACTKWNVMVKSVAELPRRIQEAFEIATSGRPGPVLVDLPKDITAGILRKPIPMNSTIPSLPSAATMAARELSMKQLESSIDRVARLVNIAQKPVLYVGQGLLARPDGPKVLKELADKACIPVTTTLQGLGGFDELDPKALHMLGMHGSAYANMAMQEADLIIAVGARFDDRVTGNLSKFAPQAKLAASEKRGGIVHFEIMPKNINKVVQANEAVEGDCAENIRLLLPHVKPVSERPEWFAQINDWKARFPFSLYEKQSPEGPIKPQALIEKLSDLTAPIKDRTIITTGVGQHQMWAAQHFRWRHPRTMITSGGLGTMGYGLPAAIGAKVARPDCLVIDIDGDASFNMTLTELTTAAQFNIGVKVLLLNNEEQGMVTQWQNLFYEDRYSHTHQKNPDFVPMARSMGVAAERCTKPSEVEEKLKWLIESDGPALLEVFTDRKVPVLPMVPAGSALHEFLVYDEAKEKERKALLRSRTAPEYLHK
Sequence of C. albicans ALS (A0A1D8PJF9 entry or part of it): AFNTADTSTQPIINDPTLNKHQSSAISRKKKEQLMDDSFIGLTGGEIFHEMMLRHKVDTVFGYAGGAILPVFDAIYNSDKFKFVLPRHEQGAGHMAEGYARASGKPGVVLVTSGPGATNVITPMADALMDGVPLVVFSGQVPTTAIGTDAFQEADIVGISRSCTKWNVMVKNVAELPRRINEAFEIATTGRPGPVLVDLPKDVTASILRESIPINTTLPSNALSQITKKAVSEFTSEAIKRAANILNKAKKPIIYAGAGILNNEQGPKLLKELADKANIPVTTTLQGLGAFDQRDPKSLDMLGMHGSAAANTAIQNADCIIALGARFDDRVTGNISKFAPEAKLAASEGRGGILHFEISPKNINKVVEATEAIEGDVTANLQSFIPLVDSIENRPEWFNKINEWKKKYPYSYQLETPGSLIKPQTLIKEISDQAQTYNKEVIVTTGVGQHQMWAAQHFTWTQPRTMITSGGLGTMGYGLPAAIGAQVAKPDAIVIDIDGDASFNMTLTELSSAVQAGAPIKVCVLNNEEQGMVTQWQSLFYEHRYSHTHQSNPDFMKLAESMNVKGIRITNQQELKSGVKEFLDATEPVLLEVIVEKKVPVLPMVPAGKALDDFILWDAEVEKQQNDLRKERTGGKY
T1 sequence (P07342 58-687): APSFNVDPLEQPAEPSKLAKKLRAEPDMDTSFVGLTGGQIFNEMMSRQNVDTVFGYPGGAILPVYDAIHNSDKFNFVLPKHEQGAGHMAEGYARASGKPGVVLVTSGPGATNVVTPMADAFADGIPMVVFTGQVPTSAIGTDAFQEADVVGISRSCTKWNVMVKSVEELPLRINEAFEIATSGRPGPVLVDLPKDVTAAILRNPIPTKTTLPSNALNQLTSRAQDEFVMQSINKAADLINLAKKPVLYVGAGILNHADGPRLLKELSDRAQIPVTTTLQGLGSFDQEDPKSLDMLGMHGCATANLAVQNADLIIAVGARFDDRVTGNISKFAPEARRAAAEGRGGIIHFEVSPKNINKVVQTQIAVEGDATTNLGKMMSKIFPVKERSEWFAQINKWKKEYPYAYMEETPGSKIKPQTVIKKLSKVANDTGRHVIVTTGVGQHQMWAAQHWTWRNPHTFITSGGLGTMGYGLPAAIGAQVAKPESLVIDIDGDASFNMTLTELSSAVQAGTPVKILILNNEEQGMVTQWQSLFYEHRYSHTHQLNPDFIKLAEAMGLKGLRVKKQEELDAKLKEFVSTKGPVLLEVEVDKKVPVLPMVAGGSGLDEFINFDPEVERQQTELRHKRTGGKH
T2 sequence (P07342 58-687 P192S): as the sequence (P07342 58-687) above, with P135S counted along it

| Structure (SMILES) | IC50 (A. fumigatus ALS) [µM] | IC50 (C. albicans ALS) [µM] | EC50 (A. fumigatus; [2]) [µM] | IC50 (A. fumigatus; [3]) [µM] | also measured |
| --- | --- | --- | --- | --- | --- |
| CCOC(=O)c1ccccc1S(=O)(=O)NC(=O)Nc1nc(Cl)cc(OC)n1 [compound 5, chlormuron ethyl] | 0.011 ± 0.003 |  |  |  | IC50 (C. albicans ALS; recombinant CaALS, read-out: ALS IC50 C. albicans): 0.027 ± 0.005 µM; EC50 (A. fumigatus; Aspergillus fumigatus, read-out: A. fumigatus growth inhibition EC50 (Figure 4A)): 80 ± 30 µM; IC50 (A. fumigatus; Aspergillus fumigatus, read-out: A. fumigatus growth inhibition IC50): 90 µM |
| COc1cc(OC)nc(Oc2cccc(Oc3nc(OC)cc(OC)n3)c2C(=O)O)n1 [compound 4, bispyribac, reference compound] |  |  |  |  | IC50 ([1]; recombinant ScALS, read-out: S. cerevisiae ALS IC50 Wild type): 0.6 ± 0.1 µM |
| COc1cnc(OC)n2nc(NS(=O)(=O)c3c(OCC(F)F)cccc3C(F)(F)F)nc12 [compound 3, penoxsulam] | 0.0005 ± 0.0002 | 0.0034 ± 0.0006 | 23 ± 7 | 25 | IC50 (S. cerevisiae ALS P192S): 0.15 ± 0.03 µM; IC50 [1]: 0.0004 ± 0.0002 µM |
| COC(=O)c1ccccc1CS(=O)(=O)NC(=O)Nc1nc(OC)cc(OC)n1 [compound 2, bensulfuron methyl] | 0.1 ± 0.02 | 0.03 ± 0.004 | 57 ± 20 | 200 |  |
| C[C@@H](c1ncncc1F)[C@](O)(Cn1cncn1)c1ccc(F)cc1F [Voriconazole, voriconazole] |  |  | 0.5 ± 0.2 | 0.5 |  |
